From patent US8653023B1, “Dual beneficial effect of dopamine enhancing and neuroprotective actions of PKC delta inhibitors for treatment of Parkinson's disease” (Iowa State University Research Foundation, Inc., priority 2006, dated 2014)
Like-named read-outs stand apart in the source and are kept apart here.

Key:
[1] = system: bone marrow-derived macrophages; settings: cited from earlier work
SRC kinase = SRC kinase (Homo sapiens, UniProt P12931); settings: cited from earlier work
PKA = settings: cited from earlier work
Akt = settings: cited from earlier work
PKCδ [2] = target: T1, PKCδ (Mus musculus, UniProt P28867); assay: PKCδ immunoprecipitation kinase assay on substantia nigra of rottlerin-treated mice; assay type: in vivo; settings: 5 days
T1 construct: PKCδ was immunoprecipitated from SN lysates of both rottlerin-mice and vehicle-mice using PKCδ specific polyclonal antibody; from tissue; host or cells: substantia nigra of C57 black mice
T1 sequence (P28867 whole entry): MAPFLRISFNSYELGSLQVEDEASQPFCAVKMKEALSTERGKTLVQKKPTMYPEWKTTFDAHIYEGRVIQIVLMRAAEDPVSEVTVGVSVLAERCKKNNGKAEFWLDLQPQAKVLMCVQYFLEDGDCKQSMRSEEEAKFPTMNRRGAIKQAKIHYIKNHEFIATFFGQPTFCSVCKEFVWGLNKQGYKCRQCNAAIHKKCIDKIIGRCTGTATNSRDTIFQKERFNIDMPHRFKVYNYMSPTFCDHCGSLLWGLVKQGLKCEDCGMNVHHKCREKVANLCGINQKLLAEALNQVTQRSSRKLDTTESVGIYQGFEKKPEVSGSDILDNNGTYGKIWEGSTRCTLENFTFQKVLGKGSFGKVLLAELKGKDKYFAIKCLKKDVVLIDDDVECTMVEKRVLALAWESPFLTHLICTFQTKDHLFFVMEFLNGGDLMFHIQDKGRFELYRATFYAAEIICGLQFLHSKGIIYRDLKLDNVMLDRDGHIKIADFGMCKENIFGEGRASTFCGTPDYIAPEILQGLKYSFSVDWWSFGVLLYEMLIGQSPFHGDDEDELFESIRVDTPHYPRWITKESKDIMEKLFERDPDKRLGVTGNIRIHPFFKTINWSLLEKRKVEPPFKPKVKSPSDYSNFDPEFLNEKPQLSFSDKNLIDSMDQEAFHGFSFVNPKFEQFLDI
Protocol: PKCδ enzymatic activity was assayed using an immunoprecipitation kinase assay as described by Reyland et al. (Reyland, Anderson et al. 1999). Briefly, after treatment with rottlerin, substantia nigra brain tissue were washed once with PBS and resuspended in 1 ml of PKC lysis buffer (25 mM HEPES, pH 7.5, 20 mM β-glycerophosphate, 0.1 mM sodium orthovanadate, 0.1% Triton X-100, 0.3 M NaCl, 1.5 mM MgCl2, 0.2 mM EDTA, 0.5 mM DTT, 10 mM NaF, and 4 μg/ml each aprotonin and leupeptin). The lysates were allowed to sit on ice for 30 min and centrifuged at 13,000×g for 5 min, and the supernatants were collected as cytosolic fraction. Protein concentration was determined using a Bradford assay. Cytosolic protein (0.25-0.5 mg) was immunoprecipitated overnight at 4° C. using 2 μg of anti-PKCδ antibody. The immunoprecipitates were then incubated with Protein-A Sepharose (Sigma) for 1 hr at 4° C. The protein A bound antigen-antibody complexes were then washed three times with PKC lysis buffer, three times with 2× kinase buffer (40 mM Tris, pH 7.4, 20 mM MgCl2, 20 μM ATP, and 2.5 mM CaCl2), and resuspended in 20 μl of 2× kinase buffer. Reaction was started by adding 20 μl of reaction buffer containing 0.4 mg Histone H1, 50 μg/ml phosphatidylserine, 4.1 μM dioleoylglycerol, and 5 μCi of [γ-^32P] ATP (3000 Ci/mM) to the immunoprecipitated samples and incubated for 10 min at 30° C. SDS gel-loading buffer (2×) was added to terminate the reaction, the samples were boiled for 5 min, and the products were separated on a 12.5% SDS-PAGE gel. The H1 phosphorylated bands were detected using a Personal Molecular Imager (FX model; Bio-Rad), and quantification was done using Quantity One 4.2.0 software.

PP2A = PP2A phosphatase activity in N27 cells (Serine/Threonine phosphatase assay kit); assay type: cell-based, rat; settings: rottlerin vs DMSO, PKCδ-DN vs LacZ
Protocol: To determine PP2A phosphatase activity, we used the Serine/Threonine phosphatase assay kit from Promega. Briefly, N27 cells and substantia nigral tissue from mouse brain were homogenized in lysis buffer (25 mM Tris-HCl, 10 mM β-mercaptoethanol, 2 mM EDTA, protease inhibitor) supplied with the kit. After centrifugation, the supernatants were used for the assay. PP2A activity was determined by measuring the amount of free phosphate generated in a reaction by measuring the absorbance of a molybdate:malachite green: phosphate complex at 600 nm using the Spectramax plate reader (Molecular Devices). The effective range for the detection of phosphate released in this assay is 100-4,000 pmol of phosphate.

PKCε, ζ, or η = settings: cited from earlier work
[3] = system: MPTP-treated C57 black mice; assay: TH protein level in SN of MPTP-treated mice (Western blot); assay type: in vivo; settings: all doses of rottlerin, MPTP 30 mg/kg 5 days
Protocol: Six to 8-week-old […] mice weighing 30 g were housed in standard conditions: constant temperature (22±1° C.), humidity (relative, 30%) and a 12-h light/dark cycle, and were allowed free access to food and water. The animals and protocol procedures were approved and supervised by the Committee on Animal Care (COAC) at the Iowa State University. Rottlerin was dissolved in 1% dimethyl sulfoxide (DMSO) and was administered intraperitoneally at various doses. An equal volume of DMSO was given to controls. Rottlerin and DMSO administrations were started 24 h before the injections of the MPTP and continued for 5 days in the MPTP model. In the chronic regimens of MPTP administration, MPTP in phosphate-buffered saline (PBS) was injected intraperitoneally at doses of 30 mg/kg, once a day. Mice were sacrificed 2 days after the MPTP injections, and the striata were dissected for catecholamine analysis. […]
brain lysates containing equal amounts of protein were loaded in each lane and separated on a 10-12% SDS-PAGE gel as described previously (Kaul, Kanthasamy et al. 2003). […] Secondary antibody-bound proteins were detected using Amersham's ECL chemiluminescence kit. […] Western blot images were captured with a Kodak […] imaging system and data were analyzed using 1D Kodak imaging analysis software.

PKCδ [4] = settings: pretreatment, dose-dependent; cited from earlier work
macrophages = settings: pretreatment, cited from earlier work
N27 cells = assay: Cellular DA and DOPAC levels in N27 cells (HPLC-EC); assay type: cell-based, rat; settings: N27 cells; rottlerin vs vehicle, PKCδ-DN vs LacZ
Protocol: PC12 cells, differentiated N27 dopaminergic cells and primary mesencephalic neurons were exposed to 1-10 μM rottlerin for the duration of the experiment. DMSO (0.01%) was used as vehicle control. PKCδ-DN- and Lac Z-expressing N27 cells were only treated with 0.01% DMSO. […] Untreated or vehicle treated cells were used as control samples.
DA and DOPAC levels in PC12, N27 cells and in brain striatal tissues were determined by high-performance liquid chromatography with electrochemical detection (HPLC-EC); samples were prepared as described previously (Kitazawa et al., 2001). The DA and DOPAC levels were measured as pg/mg protein and expressed as percent of control.

[5] = system: tyrosine hydroxylase (TH); assay: TH activity (DOPA levels after NSD-1015) in N27 cells; assay type: cell-based, rat; settings: 2 mM NSD-1015, rottlerin 3 hr vs DMSO, PKCδ-DN vs LacZ
Protocol: Plasmid pPKCδ^K376R-V5 encodes the loss of function PKCδ-V5 epitope tagged mutant protein; K376R refers to the mutation of the lysine residue at position 376 to arginine in the catalytic site resulting in inactivation of the kinase. Plasmid pLacZ-V5 encodes the β-galactosidase protein alone with a V5-epitope and is used as a vector control. N27 cells stably expressing PKCδ^K376R-V5 (herein referred to as PKCδ-DN cells) and LacZ alone-expressing cells (LacZ cells) were cultured as described previously (Kitazawa et al., 2005). PKCδ-DN or LacZ expressing N27 cells were identified by immunostaining of the C-terminal V5 epitope on expressed proteins and were differentiated with cAMP analogs (e.g. dibutyral cAMP) prior to experiments. PKCδ-DN and LacZ were also transiently expressed in mouse primary mesencephalic neurons using an AMAXA® Nucleofector™ kit (AMAXA GmbH, Germany). As described above, primary mesencephalic neurons were prepared from the midbrain of 16-18-day-old mice embryos. After digestion with trypsin-EDTA-HBSS, the primary neurons were homogenously resuspended with transfection buffer provided with the kit to a final concentration of 4-5×10^6 neurons/100 μl and mixed with 1 μg plasmid DNA encoding either PKCδ-DN-V5 or LacZ-V5. […] Transfection efficiency was >75% as determined by immunostaining of V5-expression. […]

casein kinase II = settings: cited from earlier work

SRC kinase, sequence (P12931 whole entry): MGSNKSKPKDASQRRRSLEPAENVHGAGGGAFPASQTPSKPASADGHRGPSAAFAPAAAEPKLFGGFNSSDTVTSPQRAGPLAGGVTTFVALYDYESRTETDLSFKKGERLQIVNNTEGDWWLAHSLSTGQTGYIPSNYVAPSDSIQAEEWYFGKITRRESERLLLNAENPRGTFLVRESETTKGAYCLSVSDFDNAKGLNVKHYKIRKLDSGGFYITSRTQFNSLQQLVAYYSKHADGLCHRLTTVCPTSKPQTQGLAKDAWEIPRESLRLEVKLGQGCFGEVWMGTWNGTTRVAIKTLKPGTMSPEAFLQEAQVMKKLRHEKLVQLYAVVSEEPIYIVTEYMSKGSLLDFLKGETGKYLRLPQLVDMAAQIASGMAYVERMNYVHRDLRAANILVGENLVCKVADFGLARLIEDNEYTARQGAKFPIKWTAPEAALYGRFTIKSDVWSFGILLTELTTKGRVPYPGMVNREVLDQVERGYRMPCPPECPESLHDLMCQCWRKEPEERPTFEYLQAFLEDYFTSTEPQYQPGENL

CC(=O)c1c(O)c(C)c(O)c(Cc2c(O)c3c(c(C(=O)/C=C/c4ccccc4)c2O)OC(C)(C)C=C3)c1O [rottlerin]
silica-induced apoptosis as measured by DNA fragmentation [1]: reduced | inhibition (SRC kinase): inactive | inhibition (PKA): weak inhibitor | TPA-induced dephosphorylation of Akt (Akt): inhibited | reduction in the kinase activity in SN (PKCδ [2]; i.p. injection with 3 mg rottlerin): more than 30% | reduction in the kinase activity in SN (PKCδ [2]; i.p. injection with 7 mg rottlerin): more than 30% | decrease in protein kinase activity in SN (phosphorylated histone H1 bands) (PKCδ [2]; orally treated with 10 mg rottlerin): 40% | decrease in protein kinase activity in SN (phosphorylated histone H1 bands) (PKCδ [2]; orally treated with 20 mg rottlerin): 50% | reduction of PP2A activity (PP2A): 31% | fold more potent on PKCδ than on PKCε, ζ, or η (PKCε, ζ, or η): 13- to 33 fold | TH protein level in SN [3]: attenuate loss of TH protein | MMT induced accumulation of PKCδ cleavage product and increased kinase activity (PKCδ [4]): prevented | suppression of UV-B-induced DNA fragmentation (macrophages; 1 μM): approximately 30% | suppression of UV-B-induced DNA fragmentation (macrophages; 10 μM): ~50% | DA level (N27 cells): 2748±208 pg/μg protein | DOPAC levels (N27 cells): 2564±848.19 pg/μg protein | increase in DA level (N27 cells): 4 fold | increase in DOPAC levels (N27 cells): 4 fold | TH activity [5]: 3025±266.7 pg DOPA/10^6 cells/hr | inhibition (casein kinase II): weak inhibitor
